Source: US20100298141A1, “SUBSTITUTED PYRIDINE N-OXIDE HERBICIDES” (E. I. DU PONT DE NEMOURS AND COMPANY, priority 2007, published 2010)

Key:
Surinam grass = assay: Test F preemergence test; format: in vivo, Brachiaria decumbens; details: scale 0 to 100
Outline: (§1)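 Compound in a non-phytotoxic solvent blend with surfactant is applied preemergence to planted seeds or postemergence to sugarcane plants. Plants and controls stay in the greenhouse 14 to 21 days before visual comparison.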

large crabgrass = assay: Test F preemergence test; format: in vivo, Digitaria sanguinalis; details: scale 0 to 100
Outline: as §1

annual bluegrass = assay: Test F preemergence test; format: in vivo, Poa annua; details: scale 0 to 100
Outline: as §1

dallisgrass = assay: Test F preemergence test; format: in vivo, Paspalum dilatatum; details: scale 0 to 100
Outline: as §1

southern sandbur = assay: Test F preemergence test; format: in vivo, Cenchrus echinatus; details: scale 0 to 100
Outline: as §1

common groundsel = assay: Test F preemergence test; format: in vivo, Senecio vulgaris; details: scale 0 to 100
Outline: as §1

guineagrass = assay: Test F preemergence test; format: in vivo, Panicum maximum; details: scale 0 to 100
Outline: as §1

barnyardgrass = assay: Test F preemergence test; format: in vivo, Echinochloa crus-galli; details: scale 0 to 100
Outline: as §1

common mallow = assay: Test F preemergence test; format: in vivo, Malva sylvestris; details: scale 0 to 100
Outline: as §1

field bindweed = assay: Test F preemergence test; format: in vivo, Convolvulus arvensis; details: scale 0 to 100
Outline: as §1

Italian ryegrass = assay: Test F preemergence test; format: in vivo, Lolium multiflorum; details: scale 0 to 100
Outline: as §1

mustard = assay: Test F preemergence test; format: in vivo, Brassica nigra; details: scale 0 to 100
Outline: as §1

kochia = assay: Test F preemergence test; format: in vivo, Kochia scoparia; details: scale 0 to 100
Outline: as §1

quackgrass = assay: Test F preemergence test; format: in vivo, Elytrigia repens; details: scale 0 to 100
Outline: as §1

Virginia dayflower = assay: Test F preemergence test; format: in vivo, Commelina virginica; details: scale 0 to 100
Outline: as §1

Russian thistle = assay: Test C pre-/postemergence test; format: in vivo, Salsola kali; details: Preemergence
Outline: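 Test chemicals were formulated with surfactant in a non-phytotoxic solvent and sprayed both on freshly planted seeds (preemergence) and on 1- to 4-leaf plants of 2–18 cm (postemergence). Flooded-paddy pots received compound directly into 3 cm of standing water, maintained for the test.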

common purslane = assay: Test F preemergence test; format: in vivo, Portulaca oleracea; details: scale 0 to 100
Outline: as §1

## Cc1cc[n+]([O-])c(S(=O)(=O)C(Cl)c2c(C(F)(F)F)nn(C)c2Cl)c1 (racemic) [Compound 22]
Surinam grass; 62 g ai/ha, Preemergence
  Surinam Grass plant response rating: 65
Surinam grass; 125 g ai/ha, preemergence
  Surinam Grass plant response rating: 90
Surinam grass; Preemergence, 31 g ai/ha
  Plant response rating, Surinam Grass: 0
Large crabgrass; 62 g ai/ha, Preemergence
  Crabgrass, Large plant response rating: 70
Large crabgrass; 125 g ai/ha, preemergence
  Crabgrass, Large plant response rating: 70
Large crabgrass; Preemergence, 16 g ai/ha
  Plant response rating, Crabgrass, Large: 0
Large crabgrass; Preemergence, 31 g ai/ha
  Plant response rating, Crabgrass, Large: 50
Annual bluegrass; 62 g ai/ha, Preemergence
  Bluegrass plant response rating: 30
Annual bluegrass; 125 g ai/ha, preemergence
  Bluegrass plant response rating: 50
Annual bluegrass; Preemergence, 16 g ai/ha
  Plant response rating, Bluegrass: 0
Annual bluegrass; Preemergence, 31 g ai/ha
  Plant response rating, Bluegrass: 0
dallisgrass; 62 g ai/ha, Preemergence
  Dallisgrass plant response rating: 90
dallisgrass; 125 g ai/ha, preemergence
  Dallisgrass plant response rating: 100
dallisgrass; Preemergence, 16 g ai/ha
  Plant response rating, Dallisgrass: 0
dallisgrass; Preemergence, 31 g ai/ha
  Plant response rating, Dallisgrass: 20
Southern sandbur; 62 g ai/ha, Preemergence
  Sandbur plant response rating: 75
Southern sandbur; 125 g ai/ha, preemergence
  Sandbur plant response rating: 98
Southern sandbur; Preemergence, 31 g ai/ha
  Plant response rating, Sandbur: 65
Common groundsel; 62 g ai/ha, Preemergence
  Groundsel plant response rating: 50
Common groundsel; 125 g ai/ha, preemergence
  Groundsel plant response rating: 98
Common groundsel; Preemergence, 16 g ai/ha
  Plant response rating, Groundsel: 0
Common groundsel; Preemergence, 31 g ai/ha
  Plant response rating, Groundsel: 50
guineagrass; 62 g ai/ha, Preemergence
  Guineagrass plant response rating: 90
guineagrass; 125 g ai/ha, preemergence
  Guineagrass plant response rating: 100
guineagrass; Preemergence, 16 g ai/ha
  Plant response rating, Guineagrass: 60
guineagrass; Preemergence, 31 g ai/ha
  Plant response rating, Guineagrass: 80
barnyardgrass; 62 g ai/ha, Preemergence
  Barnyardgrass plant response rating: 75
barnyardgrass; 125 g ai/ha, preemergence
  Barnyardgrass plant response rating: 95
barnyardgrass; Preemergence, 16 g ai/ha
  Plant response rating, Barnyardgrass: 10
barnyardgrass; Preemergence, 31 g ai/ha
  Plant response rating, Barnyardgrass: 40
Common mallow; 62 g ai/ha, Preemergence
  Mallow plant response rating: 65
Common mallow; 125 g ai/ha, preemergence
  Mallow plant response rating: 65
Common mallow; Preemergence, 16 g ai/ha
  Plant response rating, Mallow: 0
Common mallow; Preemergence, 31 g ai/ha
  Plant response rating, Mallow: 0
Field bindweed; 62 g ai/ha, Preemergence
  Field Bindweed plant response rating: 0
Field bindweed; 125 g ai/ha, preemergence
  Field Bindweed plant response rating: 35
Field bindweed; Preemergence, 16 g ai/ha
  Plant response rating, Field Bindweed: 0
Field bindweed; Preemergence, 31 g ai/ha
  Plant response rating, Field Bindweed: 0
Italian ryegrass; 62 g ai/ha, Preemergence
  Ryegrass, Italian plant response rating: 70
Italian ryegrass; 125 g ai/ha, preemergence
  Ryegrass, Italian plant response rating: 70
Italian ryegrass; Preemergence, 16 g ai/ha
  Plant response rating, Ryegrass, Italian: 0
Italian ryegrass; Preemergence, 31 g ai/ha
  Plant response rating, Ryegrass, Italian: 20
mustard; 62 g ai/ha, Preemergence
  Black Mustard plant response rating: 50
mustard; 125 g ai/ha, preemergence
  Black Mustard plant response rating: 80
mustard; Preemergence, 16 g ai/ha
  Plant response rating, Black Mustard: 0
mustard; Preemergence, 31 g ai/ha
  Plant response rating, Black Mustard: 20
kochia; 62 g ai/ha, Preemergence
  Kochia plant response rating: 100
kochia; 125 g ai/ha, preemergence
  Kochia plant response rating: 98
kochia; Preemergence, 16 g ai/ha
  Plant response rating, Kochia: 98
kochia; Preemergence, 31 g ai/ha
  Plant response rating, Kochia: 100
quackgrass; 62 g ai/ha, Preemergence
  Quackgrass plant response rating: 20
quackgrass; 125 g ai/ha, preemergence
  Quackgrass plant response rating: 60
quackgrass; Preemergence, 16 g ai/ha
  Plant response rating, Quackgrass: 0
quackgrass; Preemergence, 31 g ai/ha
  Plant response rating, Quackgrass: 10
Virginia dayflower; 62 g ai/ha, Preemergence
  Dayflower plant response rating: 40
Virginia dayflower; 125 g ai/ha, preemergence
  Dayflower plant response rating: 100
Virginia dayflower; Preemergence, 16 g ai/ha
  Plant response rating, Dayflower: 0
Virginia dayflower; Preemergence, 31 g ai/ha
  Plant response rating, Dayflower: 0
Russian thistle; 62 g ai/ha, scale 0 to 100
  Russian Thistle plant response rating: 100
Russian thistle; 31 g ai/ha, scale 0 to 100 (0 no effect, 100 complete control)
  Plant response rating, Russian Thistle: 100
Common purslane; 62 g ai/ha, Preemergence
  Purslane plant response rating: 30
Common purslane; 125 g ai/ha, preemergence
  Purslane plant response rating: 90
Common purslane; Preemergence, 16 g ai/ha
  Plant response rating, Purslane: 0
Common purslane; Preemergence, 31 g ai/ha
  Plant response rating, Purslane: 30
